The supplement of paper PMC11821682

What was measured:
Danio rerio embryo = assay: BMC10 any morphological effect or mortality at 120 hpf; higher = less toxic
Protocol: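 ZBEscreen: dechorionated Tropical 5D zebrafish embryos were exposed from 4 hpf in 96-well plates (1% DMSO, 28 °C). All compounds were first tested at 100 µM; hits were retested at 0.005-100 µM. Morphology and mortality were scored at 120 hpf and fitted as BMC10 (3-parameter log-logistic, extra risk). The embryonic photomotor response at 24 hpf and the larval photomotor response at 120 hpf are given as lowest effect levels (K-S test, p<0.01). NA = not significant up to 100 µM; NT = not tested.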

HL-60 = assay: Cell Health Index (toxicity pseudo-probability over dose series) (index 0-1); higher = more cytotoxic / cell stress;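 also: HL-60 cells exposed 4 h at 37 °C to ten threefold dilutions spanning 5 nM to 100 µM, multiparametric flow cytometry features scored by machine-learning classification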

| SMILES | BMC10 any morphological effect or mortality (Danio rerio embryo) [µM] | Cell Health Index (HL-60) |
| --- | --- | --- |
| COC(=O)N[C@H](C(=O)NNC[C@H](O)[C@H](Cc1ccccc1)NC(=O)[C@@H](NC(=O)OC)C(C)(C)C)C(C)(C)C [Des(benzylpyridyl) Atazanavir] | > 100 | 0.207 |
| O=c1[nH]cnc2c1ncn2[C@H]1CC[C@@H](CO)O1 [Didanosine] | > 100 | 0.159 |
| CCCCCCCCCCCCCCCCCCCCCCO [Docosanol] | > 100 | 0.266 |
| Cn1c(Cn2ccc(C(F)(F)F)c(Oc3cc(Cl)cc(C#N)c3)c2=O)n[nH]c1=O [Doravirine] | > 100 | 0.198 |
| CCO.C[C@H]1c2cccc(O)c2C(=O)C2=C(O)[C@]3(O)C(=O)C(C(N)=O)=C(O)[C@@H](N(C)C)C3[C@@H](O)C21.C[C@H]1c2cccc(O)c2C(=O)C2=C(O)[C@]3(O)C(=O)C(C(N)=O)=C(O)[C@@H](N(C)C)C3[C@@H](O)C21.Cl.Cl.O (some centres undefined) [Doxycycline] | > 100 | 0.591 |
| Cl.OC[C@H]1NC[C@H](O)[C@@H](O)[C@@H]1O [Duvoglustat] | > 100 | 0.147 |
| COc1cc2c(cc1OC)CN(CCc1ccc(NC(=O)c3cccc4c(=O)c5cccc(OC)c5[nH]c34)cc1)CC2 [Elacridar] | > 100 | 0.592 |
| COc1cc2c(cc1Cc1cccc(Cl)c1F)c(=O)c(C(=O)O)cn2[C@H](CO)C(C)C [Elvitegravir] | > 100 | 0.339 |
| Nc1nc(=O)n([C@@H]2CS(=O)[C@H](CO)O2)cc1F (some centres undefined) [Emtricitabine S-oxide] | > 100 | 0.188 |
| Nc1nc(=O)n([C@@H]2CS[C@H](CO)O2)cc1F [Emtricitabine] | > 100 | 0.158 |
| C=C1[C@H](CO)[C@@H](O)C[C@@H]1n1cnc2c(=O)nc(N)[nH]c21.O [Entecavir] | > 100 | 0.178 |
| CC(O)(P(=O)([O-])O)P(=O)([O-])O.[Na+].[Na+] [Etidronic acid] | > 100 | 0.198 |
| CC(=O)OCC(CCn1cnc2cnc(N)nc21)COC(C)=O [Famciclovir] | > 100 | 0.254 |
| NC(=O)c1nc(F)c[nH]c1=O [Favipiravir] | > 100 | 0.248 |
| O=c1[nH]c(=O)n([C@@H]2O[C@H](CO)[C@@H](O)[C@@H]2F)cc1I [Fialuridine] | > 100 | 0.209 |
| CC(C)CN(C[C@@H](OP(=O)([O-])[O-])[C@H](Cc1ccccc1)NC(=O)O[C@H]1CCOC1)S(=O)(=O)c1ccc(N)cc1.[Ca+2] [Fosamprenavir] | > 100 | 0.242 |
| O=C([O-])P(=O)([O-])[O-].[Na+].[Na+].[Na+] [Foscarnet] | > 100 | 0.13 |
| CO[C@@H]1[C@H](OC(=O)/C=C/C=C/C=C/C=C/C(=O)O)CC[C@]2(CO2)[C@H]1[C@@]1(C)O[C@@H]1CC=C(C)C [Fumagillin] | > 100 | 0.187 |
| CC(C)OC(=O)[C@H](C)N[P@](=O)(CO[C@H](C)Cn1cnc2c(N)ncnc21)Oc1ccccc1 [GS-7340] | > 100 | 0.202 |
| Nc1nc(=O)c2ncn(COC(CO)CO)c2[nH]1 [Ganciclovir] | > 100 | 0.179 |
| CCNCc1nc2c(N)nc3ccccc3c2n1CC(C)(C)O [Gardiquimod] | > 100 | 0.172 |
| Cl.Nc1ccn([C@@H]2O[C@H](CO)[C@@H](O)C2(F)F)c(=O)n1 [Gemcitabine] | > 100 | 0.172 |
